Assay results from patent publication US20250296961A1, “ANTIMICROBIAL PEPTIDES FOR REMINERALIZATION OF TEETH AND PREVENTION OF DENTAL CARIES” (The University of Hong Kong, priority 2021, published 2025).

Key:
[1] = Adsorption capacity assay: peptides with HA particles (Micro BCA); type: binding
Protocol: The adsorption of P-113, P-113-DPS, P-113-DA, and P-113-SK to HA particles (Sigma Chemical Co., St Louis, USA) was measured using the Micro BCA method with Sp-H5 as the control group. Solutions of P-113, P-113-DPS, P-113-DA, P-113-SK and Sp-H5 in 10 mM HEPES buffer (pH 7) were diluted to 10 nmol/mL concentrations, and 200 μL was placed into each tube (P-113, N=10; P-113-DPS, N=10; P-113-DA, N=10; P-113-SK, N=10; and Sp-H5, N=10). Peptide solutions were mixed with (n=5) or without (n=5) HA particles (20 mg/tube) in each group. Tubes were placed onto a rotator overnight at 37° C. for complete reaction. Tubes containing the peptide solution and HA were centrifuged (13000 rpm, 1 min) and the supernatant collected. Bovine serum albumin (BSA) standard solutions (working range=5-250 μg/mL) and working reagent were prepared using the Pierce BCA Protein Assay Kit (Rockford, IL, USA). Working reagents (100 μL/well) were added to a 96-well plate, followed by standard and peptide solutions (100 μL/well). The Plate was incubated in the dark for 30 min and the absorbance (562 nm) measured using a plate reader. The concentration (C) of the BSA standard solution was linear with the absorbance (A) at 562 nm. The function of C=a*A+b was determined (a and b as constants). The final concentration (the peptide solution mixed with HA) and the initial concentration (the peptide solution without HA) were computed using the function and the generated absorbance data of the peptide solution mixed with and without HA.

[2] = Adsorption time assay on tooth enamel (Micro BCA); type: binding, human; settings: 10 nmol/mL peptide, 37° C.
Protocol: (§1) 3×3×1.5 mm^3 (number: 197) tooth slices were prepared using a water-cooled diamond saw (IsoMet low-speed saw, Buehler, Lake Bluff, IL, USA). One working surface of complete enamel tissue from each tooth slice was generated using the MicroCT Skyscan 1172 (Bruker MicroCT, Kontich, Belgium). The enamel working side of the tooth slice was polished and other sides marked with acid-proof nail polish. All tooth slices were cleaned and stored in deionized water at 4° C.
Adsorption Time Assay The adsorption time of peptides to the tooth enamel was also tested using the Micro BCA method. Solutions of P-113, P-113-DPS, P-113-DA, and P-113-SK in 10 mM HEPES buffer (pH 7) were diluted to 10 nmol/mL. Enamel working surfaces of tooth slices (N=20) were exposed to P-113 solution (n=5), P-113-DPS solution (n=5), P-113-DA solution (n=5), and P-113-SK solution (n=5), respectively. The remaining extraneous surfaces were covered with wax. Tubes were placed into a rotator at 37° C. […] After a 30-min incubation, absorbance was measured. A function of C=a*A+b was determined (a and b are constants). The concentrations of the peptide solution at different time points (C0, C1, C2, C3, C4, and C5 at 0, 5, 20, 40, 60, and 120 min, respectively) were computed based on absorbances […].

S. mutans = assay: Anti-planktonic bacterial ability, MIC and MBC (Example 1); type: cell-based, Streptococcus mutans (ATCC 35668)
Protocol: Streptococcus mutans (ATCC 35668, ATCC, Manassas, USA) were cultured in Horse Blood Medium under anaerobic (85% N2, 10% H2, and 5% CO2) conditions at 37° C. Cells were harvested by centrifugation (5000 rpm, 10 min), washed once with 10 mM sodium phosphate-buffered saline (PBS, pH 7.2), and resuspended in brain-heart infusion broth (BHI, Difco Laboratories, Detroit, USA) at a concentration of 10^6 CFU/mL.
Two-fold serial dilutions (in 10 mM HEPES) of P-113, P-113-DPS, P-113-DA, P-113-SK, and Sp-H5 prepared in 25% BHI medium were pipetted into a 96-well cell culture plate at final concentrations from 0.125-128 μmol/mL [100 μL/well]. Each well was seeded with 10 μL bacterial suspension at a final concentration of 10^6 CFU/mL. Sp-H5 with bacterial cells and 25% BHI medium with and without bacterial cells in 10 mM HEPES buffer (pH 7) were used as the positive, negative, and blank control group, respectively. After a 24-h incubation, absorbance was measured at 595 nm using a microplate reader to assess cell growth. […] The minimal bactericidal concentration (MBC) was defined as the lowest concentration of peptide resulting in no colony formation on agar plates after incubation. 10 μL of cell suspension from each well were plated on horse blood agar plates and incubated at 37° C. for 48 h. All determinations were conducted in triplicate experiments.

[3] = Demineralization assay of peptide-coated enamel (Example 1); design: species or system human; settings: demineralization solution 7 days
Protocol: as §1
Tooth slices (N=30) were immersed in 8 μmol/mL P-113, P-113-DPS, P-113-DA, P-113-SK, Sp-H5 (n=5 for each) solutions (in 10 mM HEPES) or HEPES (control) overnight. Tooth slices were incubated in 2 mL demineralization solution (2.2 mM CaCl2), 2.2 mM NaH2PO4, 0.05 M acetic acid, pH 4.5) for 7 days at 37° C. Lesions depths were analyzed by MicroCT Skyscan 1172. Mineral calcium (Ca) or phosphorus (P) concentrations before and after immersion were measured using Inductively Coupled Plasma Optical Emission Spectrometer (ICP-OES; Spectro Arcos, Kleve, Germany). Ca/P loss was expressed as mM/cm^2. The mean values of Ca/P loss were analyzed for each group using ANOVA at the 1% c significance level.

## AKRHHGYKRKFH [Peptide P-113, non-specific AMP, portion of human histatin 5]
[1]; initial vs final concentration with HA particles
  Concentration change (95% CI): 0.29 (−0.01-0.61)
[1]; peptide solution mixed with HA particles (20 mg/tube), overnight 37° C.
  Final concentration (Mean ± SD): 9.86 ± 0.23 nM mL^−1
[2]
  Adsorption time on enamel (majority of adsorption / significant decrease in concentration): 60 min
S. mutans
  MBC: >128 μM mL^−1
S. mutans; 24 h
  MIC: 32 μM mL^−1
[3]; 8 μmol/mL coating, MicroCT
  Maximum lesion depth: 115 μm
[3]
  Ca losses vs control group: Significant differences were not detected
